system: HCV 1b genotype replicon; experiment: HCV replicon assay (qRT-PCR or luciferase), genotype 1b; format: cell-based; conditions: Hepatitis C virus; HCV 1b replicon cell lines (SGR 11-7 or Huh-luc/neo-ET); qRT-PCR or luciferase readout; two labels in one cell = mixture of the two compounds tested; read-out: Genotype-1b replicon EC50 Range
Description: HCV replicon cell lines (kindly provided by R. Bartenschlager) isolated from colonies as described by Lohman et. al. (Lohman et al. (1999) Science 285: 110-113, expressly incorporated by reference in its entirety) and used for all experiments. The HCV replicon has the nucleic acid sequence set forth in EMBL Accession No.: AJ242651, the coding sequence of which is from nucleotides 1801 to 8406.
The coding sequence of the published HCV replicon was synthesized and subsequently assembled in a modified plasmid pBR322 (Promega, Madison, Wis.) using standard molecular biology techniques. One replicon cell line (“SGR 11-7”) stably expresses HCV replicon RNA which consists of (i) the HCV 5′UTR fused to the first 12 amino acids of the capsid protein, (ii) the neomycin phosphotransferase gene (neo), (iii) the IRES from encephalomyocarditis virus (EMCV), and (iv) HCV NS2 to NS5B genes and the HCV 3′UTR. Another replicon cell line (“Huh-luc/neo-ET”) described by Vrolijk et. al. (Vrolijk et. al. (2003) Journal of Virological Methods 110:201-209, expressly incorporated by reference in its entirety) stably expresses HCV replicon RNA which consists of (i) the HCV 5′UTR fused to the first 12 amino acids of the capsid protein, (ii) the firefly luciferase reporter gene, (iii) the ubiquitin gene, (iv) the neomycin phosphotransferase gene (neo), (v) the IRES from encephalomyocarditis virus (EMCV), and (vi) HCV NS3 to NS5B genes that harbor cell culture adaptive mutations (E1202G, T1280I, K1846T) and the HCV 3′UTR.
These cell lines were maintained at 37° C., 5% CO2, 100% relative humidity in DMEM (Cat#11965-084, Invitrogen), with 10% fetal calf serum (“FCS”, Invitrogen), 1% non-essential amino acids (Invitrogen), 1% of Glutamax (Invitrogen), 1% of 100× penicillin/streptomycin (Cat#15140-122, Invitrogen) and Geneticin (Cat#10131-027, Invitrogen) at 0.75 mg/ml or 0.5 mg/ml for 11-7 and Huh-luc/neo-ET cells, respectively.
EC50 values of single agent compounds and combinations were determined by HCV RNA detection using quantitative RT-PCR, according to the manufacturer's instructions, with a TAQMAN® One-Step RT-PCR Master Mix Reagents Kit (Cat# AB 4309169, Applied Biosystems) on an ABI Model 7500 thermocycler. The TaqMan primers used for detecting and quantifying HCV RNA were obtained from Integrated DNA Technologies. HCV RNA was normalized to GAPDH RNA levels in drug-treated cells, which was detected and quantified using the Human GAPDH Endogenous Control Mix (Applied Biosystems, AB 4310884E). Total cellular RNA was purified from 96-well plates using the RNAqueous 96 kit (Ambion, Cat# AM1812). Chemical agent cytotoxicity was evaluated using an MTS assay according to the manufacturer's directions (Promega).
Since clinical drug resistance often develops in viral infections following single agent therapies, there is a need to assess the additive, antagonistic, or synergistic properties of combination therapies. We use the HCV replicon system to assess the potential use of the compound of the present invention or in combination therapies with Interferon alpha, cyclosporine analogs and inhibitors targeting other HCV proteins. The acute effects of a single or combinations of drugs are studied in the “Huh-luc/neo-ET” replicon with each chemical agent titrated in an X or Y direction in a 6 point two-fold dilution curve centered around the EC50 of each drug. Briefly, replicon cells are seeded at 7,000 cells per well in 90 ul DMEM (without phenol red, Invitrogen Cat.#31053-036) per well with 10% FCS, 1% non-essential amino acids, 1% of Glutamax and 1% of 100× penicillin/streptomycin and incubated overnight at 37° C., 5% CO2, 100% relative humidity. […]

Structure (SMILES) | EC50
COC(=O)N[C@H](C(=O)NC[C@H]1CCCN1C(=O)c1ccc(-c2ccc(-c3cnc([C@@H]4CCCN4C(=O)[C@@H](NC(=O)OC)C(C)C)[nH]3)cc2)cc1)C(C)C [Example 381] | > 10 nM
COC(=O)N[C@H](C(=O)N1CCC[C@H]1CNC(=O)c1ccc(-c2ccc(-c3cnc([C@@H]4CCCN4C(=O)[C@@H](NC(=O)OC)C(C)C)[nH]3)cc2)cc1)C(C)C [Example 257] | < 1 nM
COC(=O)N[C@H](C(=O)N[C@@H]1CCC[C@H]1NC(=O)c1ccc(-c2ccc(-c3c[nH]c([C@@H]4CCCN4C(=O)[C@@H](NC(=O)OC)C(C)C)n3)cc2)cc1)C(C)C [Example 369] | > 10 nM
COC(=O)N[C@H](C(=O)N1CC[C@@H](C(=O)Nc2ccc(-c3ccc(-c4c[nH]c([C@@H]5CCCN5C(=O)[C@@H](NC(=O)OC)C(C)C)n4)cc3)cc2)C1)C(C)C [Example 374] | < 1 nM
COC(=O)N[C@H](C(=O)N1CCC[C@H]1CNC(=O)c1cccc(-c2ccc3cc(-c4c[nH]c([C@@H]5CCCN5C(=O)[C@@H](NC(=O)OC)C(C)C)n4)ccc3c2)c1)C(C)C [Example 361] | 1 to 10 nM
COC(=O)N[C@H](C(=O)N1CCC[C@@H](C(=O)Nc2ccc(-c3ccc(-c4cnc([C@@H]5CCCN5C(=O)[C@@H](NC(=O)OC)C(C)C)[nH]4)cc3)cc2)C1)C(C)C (racemic) [382a and 382b] | < 1 nM
COC(=O)N[C@H](C(=O)O[C@@H]1CCC[C@H]1NC(=O)c1ccc(-c2ccc(-c3c[nH]c([C@@H]4CCCN4C(=O)[C@@H](NC(=O)OC)C(C)C)n3)cc2)cc1)C(C)C (racemic) [377a and 377b] | < 1 nM
COC(=O)N[C@H](C(=O)N1CC[C@H](C(=O)Nc2ccc3cc(-c4ccc(-c5c[nH]c([C@@H]6CCCN6C(=O)[C@@H](NC(=O)OC)C(C)C)n5)cc4)ccc3c2)C1)C(C)C [Example 365] | 1 to 10 nM
COC(=O)N[C@H](C(=O)N1CCC(C(=O)Nc2ccc(-c3ccc(-c4c[nH]c([C@@H]5CCCN5C(=O)[C@@H](NC(=O)OC)C(C)C)n4)cc3)cc2)C1)C(C)C (stereo partly shown) [Example 355] | 1 to 10 nM
COC(=O)N[C@H](C(=O)N[C@@H]1CCC[C@H]1NC(=O)c1ccc(-c2ccc(-c3c[nH]c(C4CCCN4C(=O)[C@@H](NC(=O)OC)C(C)C)n3)cc2)cc1)C(C)C (mixture of isomers) [367a and 367b] | < 1 nM
COC(=O)N[C@H](C(=O)N[C@@H]1CCC[C@H]1NC(=O)c1ccc(-c2ccc(-c3ccc4[nH]c([C@@H]5CCCN5C(=O)[C@@H](NC(=O)OC)C(C)C)nc4c3)cc2)cc1)C(C)C (racemic) [371a and 371b] | < 1 nM
COC(=O)N[C@H](C(=O)N1CC[C@@H](NC(=O)c2ccc(-c3ccc(-c4c[nH]c([C@@H]5CCCN5C(=O)[C@@H](NC(=O)OC)C(C)C)n4)cc3)cc2)C1)C(C)C [Example 352] | 1 to 10 nM
COC(=O)N[C@H](C(=O)N[C@H]1CCC[C@@H]1C(=O)Nc1ccc(-c2ccc(-c3c[nH]c([C@@H]4CCCN4C(=O)[C@@H](NC(=O)OC)C(C)C)n3)cc2)cc1)C(C)C (racemic) [349a and 349b] | 1 to 10 nM
COC(=O)N[C@H](C(=O)N1CC[C@H](NC(=O)c2ccc(-c3ccc(-c4c[nH]c([C@@H]5CCCN5C(=O)[C@@H](NC(=O)OC)C(C)C)n4)cc3)cc2)C1)C(C)C [Example 372] | 1 to 10 nM
COC(=O)N[C@H](C(=O)N1CC[C@H](C(=O)Nc2ccc3cc(-c4ccc5[nH]c([C@@H]6CCCN6C(=O)[C@@H](NC(=O)OC)C(C)C)nc5c4)ccc3c2)C1)C(C)C [Example 327] | > 10 nM
COC(=O)N[C@H](C(=O)N1CCC(C(=O)Nc2ccc(-c3ccc4[nH]c([C@@H]5CCCN5C(=O)[C@@H](NC(=O)OC)C(C)C)nc4c3)cc2)C1)C(C)C (stereo partly shown) [Example 363] | > 10 nM
COC(=O)N[C@H](C(=O)N1CC[C@H](C(=O)Nc2ccc(-c3ccc(-c4c[nH]c([C@@H]5CCCN5C(=O)[C@@H](NC(=O)OC)C(C)C)n4)cc3)cn2)C1)C(C)C [Example 379] | < 1 nM
COC(=O)N[C@H](C(=O)N1CC[C@H](C(=O)Nc2ccc(-c3ccc(-c4cnc([C@@H]5CCCN5C(=O)[C@@H](NC(=O)OC)C(C)C)[nH]4)cc3)cc2)C1)C(C)C [Example 83] | 1 to 10 nM
COC(=O)N[C@H](C(=O)N1CCC[C@@H]1CNC(=O)c1ccc(-c2ccc(-c3cnc([C@@H]4CCCN4C(=O)[C@@H](NC(=O)OC)C(C)C)[nH]3)cc2)cc1)C(C)C [Example 380] | 1 to 10 nM

Reference: patent publication US8822700B2, “Hepatitis C virus inhibitors” (Enanta Pharmaceuticals, Inc., priority 2009, dated 2014)
